Laboratory results: BindingDB's records for patent US9908886 (Agency For Science, Technology and Research, 2018)

Legend:
[1] = target: MAP kinase-interacting serine/threonine-protein kinase 2 (Homo sapiens, UniProt Q9HBH9); test: In Vitro Kinase Assay
Method: (§1) MNK1 and MNK2 inhibitor activity was determined using recombinant kinase domains expressed in E. coli. MNK1 and MNK2 were expressed as GST fusion proteins and the GST tag was removed using PreScission protease. After concentration to 10-15 mg/ml the proteins were flash frozen in liquid nitrogen and stored at −80° C. […] This reaction mixture was then used immediately for the activation of the MNKs. The activation of the MNK1 was performed by incubating 5.0 μM of MNK1 with 0.3 μM of activated ERK2 and 500 μM ATP at 30° C. for 6 hours. The activation of MNK2 was performed by incubating 50 μM of MNK2 with 3.0 μM of activated ERK2 and 500 μM ATP at 30° C. for 2 hours. The activated MNKs were stored at −20° C. until required for assay.

[2] = target: MAP kinase-interacting serine/threonine-protein kinase 1 (Homo sapiens, UniProt Q9BUB5); test: In Vitro Kinase Assay
Method: as §1

Sequence of MAP kinase-interacting serine/threonine-protein kinase 2 (Q9HBH9 whole entry, the tested form may be a part): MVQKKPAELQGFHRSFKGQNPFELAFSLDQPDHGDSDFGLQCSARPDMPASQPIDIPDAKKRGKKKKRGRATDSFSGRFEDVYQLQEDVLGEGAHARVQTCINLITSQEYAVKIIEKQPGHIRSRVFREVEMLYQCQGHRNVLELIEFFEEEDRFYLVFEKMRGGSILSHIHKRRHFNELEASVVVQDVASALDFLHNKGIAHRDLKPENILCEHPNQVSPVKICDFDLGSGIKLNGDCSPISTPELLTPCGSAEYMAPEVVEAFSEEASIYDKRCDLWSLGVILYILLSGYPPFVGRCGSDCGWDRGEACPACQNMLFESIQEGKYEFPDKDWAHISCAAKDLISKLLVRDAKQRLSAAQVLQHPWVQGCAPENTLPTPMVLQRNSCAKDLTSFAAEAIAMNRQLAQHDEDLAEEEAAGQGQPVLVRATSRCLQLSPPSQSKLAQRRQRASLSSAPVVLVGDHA
Sequence of MAP kinase-interacting serine/threonine-protein kinase 1 (Q9BUB5 whole entry): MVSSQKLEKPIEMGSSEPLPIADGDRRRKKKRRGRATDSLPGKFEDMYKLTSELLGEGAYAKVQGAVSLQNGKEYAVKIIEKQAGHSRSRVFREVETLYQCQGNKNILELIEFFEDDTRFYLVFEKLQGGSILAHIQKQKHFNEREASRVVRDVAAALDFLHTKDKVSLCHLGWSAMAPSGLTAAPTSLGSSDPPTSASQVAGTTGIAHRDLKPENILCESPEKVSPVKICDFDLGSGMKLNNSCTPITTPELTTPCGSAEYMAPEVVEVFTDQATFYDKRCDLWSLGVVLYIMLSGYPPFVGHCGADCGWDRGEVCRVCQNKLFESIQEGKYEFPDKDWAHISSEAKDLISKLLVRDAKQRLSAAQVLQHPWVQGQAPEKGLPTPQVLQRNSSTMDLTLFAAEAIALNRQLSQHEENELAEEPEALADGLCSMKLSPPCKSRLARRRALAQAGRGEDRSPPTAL

## CN1CCN(C(=O)c2ccc(-c3ccc4ncc(-c5ccc(C#N)cc5)n4n3)cc2)CC1 [US9908886, Example 54]
[1]
  IC50: < 100 nM
[2]
  IC50: < 100 nM
